This is an account of results in US6294554A (priority 2000, dated 2001).

The test system of this test is acetylcholine (ACh). In words: In vivo microdialysis, acetylcholine (ACh) levels in striatum. The note with it: 10 mg/kg PO, rat striatum ACh. Details: species or system male Sprague-Dawley Rats. The protocol: Microdialysis Methodology
Surgery: For these studies, male Sprague-Dawley Rats (250-350 g) were anesthetized with sodium pentobarbital (54 mg/kg, ip) and placed on a Kopf sterotaxic apparatus. The skull was exposed and drilled through to the dura at a point 0.2 mm anterior and 3.0 mm lateral to the bregma. At these coordinates, a guide cannula was positioned at the outer edge of the dura through the drilled opening, lowered perpendicularly to a depth of 2.5 mm, and permanently secured with dental cement to bone screws. Following the surgery, rats were given ampicillin (40 mg/kg, ip) and individually housed in modified cages. A recovery period of approximately 3 to 7 days was allowed before the microdialysis procedure was undertaken.
Microdialysis: All of the equipment and instrumentation used to conduct in vivo microdialysis was obtained from Bioanalytical Systems, Inc. (BAS). The microdialysis procedure involved the insertion through the guide cannula of a thin, needle-like perfusable probe (CMA/12, 3 mm×0.5 mm) to a depth of 3 mm in striatum beyond the end of the guide. The probe was connected beforehand with tubing to a microinjection pump (CMA/100). Rats were collared, tethered, and, following probe insertion, were placed in a large, clear, plexiglass bowl with litter material and access to food and water. The probe was perfused at 2, μl/min with Ringer's buffer (NaCl 147 mM; KCl 3.0 mM; CaCl2 1.2 mM; MgCl2 1.0 mM) containing 5.5 mM glucose, 0.2 mM L-ascorbate, and 1 μM neostigmine bromide at pH 7.4). To achieve stable baseline readings, microdialysis was allowed to proceed for 90 minutes prior to the collection of fractions. Fractions (20 μl) were obtained at 10 minute intervals over a 3 hour period using a refrigerated collector (CMA/1 70 or 200). Four to five baseline fractions were collected, following which the drug or combination of drugs to be tested was administered to the animal. Upon completion of the collection, each rat was autopsied to determine accuracy of probe placement.
Acetylcholine (ACh) analysis: The concentration of ACh in collected samples of microdialysate was determined using HPLC/electrochemical detection. Samples were auto-injected (Waters 712 Refrigerated Sample Processor) onto a polymeric analytical HPLC column (BAS, MF-6150) and eluted with 50 mM Na2 HPO4, pH 8.5. To prevent bacterial growth, Kathon CG reagent (0.005%) (BAS) was included in the mobile phase. Eluent from the analytical column, containing separated ACh and choline, was then immediately passed through an immobilized enzyme reactor cartridge (BAS, MF-6151) coupled to the column outlet. […] Integration and quantification of peaks were accomplished using "Maxima" chromatography software (Waters Corporation). […]

For the molecule `Nc1ccccc1C(=O)N1CCC(N2CCC(Cc3ccc(S(=O)(=O)c4cccc(Cl)c4)cc3)CC2)CC1` [Example 7A], the “Microdialysis Maximum % of baseline” value was determined as 150%.

In the case of `Nc1cc(F)ccc1C(=O)N1CCC(N2CCC(C3(c4ccc(S(=O)(=O)c5cccc(Cl)c5)cc4)OCCO3)CC2)CC1` [Example 3E], the “Microdialysis Maximum % of baseline” value stood at 188%.

Take `COc1ccc(S(=O)(=O)c2ccc(C3(C4CCN(C5CCN(C(=O)c6cccc(C)c6N)CC5)CC4)OCCO3)cc2)cc1` [Example 2]: the “Microdialysis Maximum % of baseline” value stood at 194%.

With `COc1ccc(S(=O)(=O)c2ccc(C3(C4CCN(C5CCN(C(=O)c6cccc(F)c6N)CC5)CC4)OCCO3)cc2)cc1` [Example 2F], the “Microdialysis Maximum % of baseline” value is 186%.
